{"source": "patent US5424185A", "about": "“Human high-affinity neurotransmitter uptake system” (Baylor College of Medicine, priority 1990, dated 1995)", "key": {"[1]": {"biological_target": "T1, human 5HT transporter (L-S2 cells) (Homo sapiens, UniProt P31645)", "T1 construct": "expressed in transfected cells; host or cells: mouse L-M fibroblasts (ATCC CCL 1.2) transfected with total human genomic DNA and pSV2neo; clone L-S2", "T1 sequence (P31645 whole entry)": "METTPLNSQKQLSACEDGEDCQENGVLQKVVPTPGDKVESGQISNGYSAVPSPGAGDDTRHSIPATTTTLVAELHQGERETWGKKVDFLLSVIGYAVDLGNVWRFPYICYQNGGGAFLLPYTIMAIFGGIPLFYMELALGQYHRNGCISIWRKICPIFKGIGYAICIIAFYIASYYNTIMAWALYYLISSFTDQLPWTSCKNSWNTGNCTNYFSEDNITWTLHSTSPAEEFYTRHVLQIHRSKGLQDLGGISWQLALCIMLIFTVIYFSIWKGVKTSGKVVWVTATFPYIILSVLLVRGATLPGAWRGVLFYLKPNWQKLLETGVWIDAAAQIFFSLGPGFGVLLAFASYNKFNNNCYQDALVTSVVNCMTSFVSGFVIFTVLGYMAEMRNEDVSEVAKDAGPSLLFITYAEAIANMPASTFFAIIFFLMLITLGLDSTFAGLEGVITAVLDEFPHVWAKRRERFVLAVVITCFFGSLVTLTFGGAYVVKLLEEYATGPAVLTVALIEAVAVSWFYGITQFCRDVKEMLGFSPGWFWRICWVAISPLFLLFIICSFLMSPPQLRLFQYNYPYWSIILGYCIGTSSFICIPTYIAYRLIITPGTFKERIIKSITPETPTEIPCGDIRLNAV", "assay": "[3H]-5-HT uptake by L-S2 cells", "assay_type": "cell-based", "protocol": "(§1) L-S1 and L-M cells were preplated into 96-well culture plates. For uptake assays, the growth medium was removed from each well and the cells rinsed several times with oxygenated Ringer's buffer supplemented with 0.5 mM pargyline and 0.5 mM ascorbate. […] The radioligand was added to a final concentration of 0.1 μM and incubated with the cells at 37° C. for 40 minutes. The incubation mixture was then removed and each well was washed three times at room temperature with Ringer's buffer. The cells remaining in the wells were lysed with 1% sodium dodecyl sulphate (SDS) and transferred to counting vials containing 5 ml of ACS scintillant (Amersham), for liquid scintillation spectrometry. For each assay, 6-8 parallel sets of wells were assayed simultaneously.\n(§2) Non-specific activity was determined from parallel assays carried out at 0° C. Initial velocities were calculated in terms of pmol/mg protein/min by subtracting velocity values obtained at 0° C. from those obtained at 37° C.\n(§3) Cells were assayed in the presence of each inhibitor for 40 minutes at 37° C., washed with Ringer's buffer and prepared for counting as previously described. Five confluent wells were assayed at each inhibitor concentration. The IC50 value for each inhibitor was determined by plotting the percent activity against the logarithm of inhibitor concentration. Measured levels of uptake in the presence of inhibitors were expressed as the percentage of maximal uptake (100 %) in the absence of inhibitor."}, "[2]": {"system": "L-M cells", "assay": "[3H]-5-HT uptake by untransfected L-M cells", "assay_type": "cell-based, mouse", "protocol": "as §1, with “For each assay, 6-8 parallel sets of wells were assayed simultaneously.” left out\nas §2\nas §3, with “Five confluent wells were assayed at each inhibitor concentration.” left out"}, "[3]": {"biological_target": "T2, human 5HT transporter (L-S1 cells) (Homo sapiens, UniProt P31645)", "T2 construct": "expressed in transfected cells; host or cells: mouse L-M fibroblasts (ATCC CCL 1.2) transfected with total human genomic DNA and pSV2neo; clone L-S1", "T2 sequence (P31645 whole entry)": "as above", "assay": "[3H]-5-HT uptake by L-S1 cells", "assay_type": "cell-based", "protocol": "The cells were incubated at 37° C. for an additional 40 min.\nas §1, with “[…] […]” for “The radioligand was added to a final concentration of 0.1 μM and incubated with the cells at 37° C. for 40 minutes. The incubation mixture was then removed and each well was washed three times at room temperature with Ringer's buffer.”\nas §2, §3"}, "[4]": {"system": "Cultured Astrocytes (rat)", "settings": "read-out: Representative IC50, Cultured Astrocytes (rat); literature values; cited from earlier work"}, "[5]": {"system": "Synaptosomes", "settings": "literature values; read-out: Representative IC50, Synaptosomes; cited from earlier work"}, "[6]": {"system": "Purified Synaptosomes", "settings": "literature value, reference printed beside it; read-out: Representative IC50, Purified Synaptosomes; cited from earlier work"}, "[7]": {"system": "Rat Synaptosomes", "settings": "literature values; read-out: Representative IC50, Rat Synaptosomes; cited from earlier work"}, "[8]": {"system": "Human Platelets", "settings": "literature values; read-out: Representative IC50, Human Platelets; cited from earlier work"}, "[9]": {"system": "neuronal and glial GABA uptake systems in the CNS", "settings": "literature, cited from earlier work; for IC50: neuronal and glial uptake systems, read-out: IC50, high-affinity GABA uptake in the CNS"}, "[10]": {"system": "L-M cells", "settings": "2 to 500 μM [3H]GABA, low-affinity system"}, "[11]": {"system": "GABA transporter (L-GAB1 cells)", "assay": "[3H]GABA uptake by L-GAB1 cells", "assay_type": "cell-based, human", "settings": "for effect of GABA uptake inhibitors on [3H]GABA uptake by L-GAB1 cells: inhibitor 1 to 100 μM", "protocol": "Using concentrations of [^3 H] GABA ranging from 2 to 500 μM, the kinetic profile of GABA uptake was determined for both L-GAB1 and L-M cells. The initial velocity of GABA uptake was measured and plotted against the corresponding [^3 H] GABA concentration for both cell lines. […] The velocity profile for L-GAB1 cells was subtracted by that of L-M cells, and the resulting data used for a double-reciprocal plot of velocity-^1 against GABA concentration-^1. The velocity profile for L-M cells was also transformed into a double-reciprocal plot.\nSeveral known inhibitors of high-affinity GABA uptake were used to examine their efficacies in inhibiting [^3 H] GABA uptake by L-GAB1 cells. […] Each of these agents was used at several concentrations ranging from 1 to 100 μM in assays of [^3 H] GABA uptake by L-GAB1 cells. […] GABA uptake by L-GAB1 cells.\nL-GAB1 cells were also analyzed in terms of their ligand-specificity in the high-affinity GABA uptake mechanism."}, "[12]": {"system": "Rabbit Platelets", "settings": "read-out: Representative IC50, Rabbit Platelets; literature value; cited from earlier work"}, "[13]": {"system": "T3, NCCc1c[nH]c2ccc(O)cc12", "T3 construct": "expressed in transfected cells; host or cells: mouse L-M fibroblasts (ATCC CCL 1.2) transfected with total human genomic DNA and pSV2neo; clone L-S1", "assay": "[3H]-5-HT uptake by L-S1 cells", "assay_type": "cell-based, human", "settings": "other: 10 min, 37° C. minus 0° C., Lineweaver-Burk"}, "[14]": {"system": "T4, NCCc1c[nH]c2ccc(O)cc12", "T4 construct": "expressed in transfected cells; host or cells: mouse L-M fibroblasts (ATCC CCL 1.2) transfected with total human genomic DNA and pSV2neo; clone L-S2", "assay": "[3H]-5-HT uptake by L-S2 cells", "assay_type": "cell-based, human", "settings": "other: 10 min, 37° C. minus 0° C., Lineweaver-Burk"}, "[15]": {"system": "human L-glutamate transporter (L-Glul cells)", "assay": "L-[3H]glutamate uptake by L-Glul cells", "assay_type": "cell-based", "settings": "unlabelled neurotransmitters, EAA receptor ligands, co-transporter inhibitors", "protocol": "Both L-Glul and L-M cells were assessed for their kinetic properties of [^3 H] Glu uptake, and the results were analyzed by fitting to Michaelis-Menten kinetics. This was done by incubating cells with differing concentrations of [^3 H] Glu (ranging from 0.05 to 2 μM) for 10 minutes, at both 37° C. and 0° C. The amount of [^3 H] Glu retained by the cells following incubation was then quantitated and converted (using the manufacturer's specific activity for [^3 H] Glu to the corresponding picomole-equivalent of the radioligand, for each concentration of radioligand at each temperature. Then, the pmol value is normalized by the length of incubation and the amount of protein corresponding to the number of cells assayed. The resulting value, expressed in units of pmol/min/mg protein, is the initial velocity value for each concentration of [^3 H] Glu at each temperature. The initial velocity measured at 37° C. represents total initial velocity; the initial velocity measured at 0° C. represents nonspecific initial velocity. The difference between these two velocity values is then the specific initial velocity, denoted by \"V\", for each concentration of [^3 H] Glu.\nVarious drugs specific for excitatory amino acid (EAA) receptor subtypes were assessed for their effects on [^3 H] Glu uptake by L-Glul cells.\nGlu uptake by L-Glul cells."}, "[16]": {"settings": "ligand 10 μM, 10 min preincubation, 0.1 μM [3H]-5HT, 40 min, 37° C. (FIG. 1)"}}, "note": "“And” between values parts separate entries of the source, which are not always exact repeats. Equal entries are not always repeated. Where two headings read alike, the source gives them in different places.", "data": [{"compound": "CN(C)CCCN1c2ccccc2CCc2ccccc21", "note": "[Imipramine, imipramine]", "values": [{"measurement": "effect of competing ligand on [3H]-5HT uptake, L-S2", "setting": "[1]", "result": "significantly inhibited"}, {"measurement": "mechanism of inhibition of 5-HT uptake, L-S2", "setting": "[1]", "result": "competitive inhibition"}, {"measurement": "effect on 5-HT uptake activity of untransfected L-M cells", "setting": "[2]", "result": "unaffected"}, {"measurement": "effect of competing ligand on [3H]-5HT uptake, L-S1", "setting": "[3]", "result": "significantly inhibited"}, {"measurement": "IC50", "setting": "[4]", "result": 140, "unit": "nM"}, {"measurement": "IC50", "setting": "[5]", "result": 100, "unit": "nM"}, {"measurement": "IC50", "setting": "[6]", "result": 210, "unit": "nM"}]}, {"compound": "c1ccc2c3c([nH]c2c1)CNCC3", "note": "[Tryptoline]", "values": [{"measurement": "IC50", "setting": "[1]", "result": 8000, "unit": "nM"}, {"measurement": "inhibition of [3H]-5-HT uptake in words, L-S2", "setting": "[1]", "result": "relatively ineffective"}, {"measurement": "IC50", "setting": "[3]", "result": 4000, "unit": "nM"}, {"measurement": "inhibition of [3H]-5-HT uptake in words, L-S1", "setting": "[3]", "result": "relatively ineffective"}, {"measurement": "IC50", "setting": "[7]", "result": 2500, "unit": "nM"}, {"measurement": "IC50", "setting": "[8]", "result": 3800, "unit": "nM"}]}, {"compound": "NCCCC(=O)O", "note": "[GABA, γ-aminobutyric acid]", "values": [{"measurement": "Km", "setting": "[9]; read-out: Km of high-affinity GABA transport systems in the CNS", "result": "< 25 µM and 50 to 100 µM"}, {"measurement": "transport Vmax of GABA, L-M cells", "setting": "[10]", "result": 2.1, "unit": "pmol/min/mg protein"}, {"measurement": "Km", "setting": "[10]; read-out: transport Km of GABA, L-M cells", "result": 697, "unit": "µM"}, {"measurement": "transport Vmax of GABA, additional component in L-GAB1 cells", "setting": "[11]; 2 to 500 μM [3H]GABA, L-M profile subtracted", "result": 2.4, "unit": "pmol/min/mg protein"}, {"measurement": "Km", "setting": "[11]; 2 to 500 μM [3H]GABA, L-M profile subtracted, read-out: transport Km of GABA, additional component in L-GAB1 cells", "result": 110, "unit": "µM"}, {"measurement": "transport Vmax of GABA, system common to L-M and L-GAB1, L-GAB1 cells", "setting": "[11]; 2 to 500 μM [3H]GABA, low-affinity system", "result": 2.1, "unit": "pmol/min/mg protein"}, {"measurement": "Km", "setting": "[11]; 2 to 500 μM [3H]GABA, low-affinity system, read-out: transport Km of GABA, system common to L-M and L-GAB1, L-GAB1 cells", "result": 697, "unit": "µM"}]}, {"compound": "CNCCC=C1c2ccccc2CCc2ccccc21", "note": "[Nortriptyline, nortriptyline]", "values": [{"measurement": "IC50", "setting": "[12]", "result": 900, "unit": "nM"}]}, {"compound": "NCCc1c[nH]c2ccccc12", "note": "[Tryptamine, tryptamine]", "values": [{"measurement": "IC50", "setting": "[1]", "result": 900, "unit": "nM"}, {"measurement": "IC50", "setting": "[3]", "result": 130, "unit": "nM"}, {"measurement": "IC50", "setting": "[7]", "result": 2800, "unit": "nM"}, {"measurement": "IC50", "setting": "[8]", "result": 2700, "unit": "nM"}]}, {"compound": "human 5HT transporter (L-S1 cells) (Homo sapiens)", "values": [{"measurement": "Km", "setting": "[13]", "result": "0.390 ± 0.096", "unit": "µM"}, {"measurement": "Vmax", "setting": "[13]", "result": "2.14 ± 0.55", "unit": "pmol/mg/min"}]}, {"compound": "NCCC(N)C(=O)O", "note": "(stereo not shown) [DABA, 2,4-diaminobutyric acid]", "values": [{"measurement": "IC50", "setting": "[9]", "result": "10000 to 200000", "unit": "nM"}, {"measurement": "inhibition of total [3H]GABA uptake by L-GAB1 cells", "setting": "[11]; effect saturating by 100 μM", "result": "less than 20%"}, {"measurement": "effect of GABA uptake inhibitors on [3H]GABA uptake by L-GAB1 cells", "setting": "[11]", "result": "some effect"}]}, {"compound": "human 5HT transporter (L-S2 cells) (Homo sapiens)", "values": [{"measurement": "Km", "setting": "[14]", "result": "0.234 ± 0.027", "unit": "µM"}, {"measurement": "Vmax", "setting": "[14]", "result": "1.33 ± 0.13", "unit": "pmol/mg/min"}]}, {"compound": "NCCc1c[nH]c2ccc(O)cc12", "note": "[5-HT, serotonin]", "values": [{"measurement": "effect of excess unlabelled 5-HT on [3H]5-HT uptake, L-S2", "setting": "[1]; kinetic assay, Lineweaver-Burk", "result": "significantly inhibited"}, {"measurement": "effect of competing ligand on [3H]-5HT uptake, L-S2", "setting": "[1]; [16]", "result": "significantly inhibited"}, {"measurement": "effect on 5-HT uptake activity of untransfected L-M cells", "setting": "[2]", "result": "unaffected"}, {"measurement": "effect of excess unlabelled 5-HT on [3H]5-HT uptake, L-S1", "setting": "[3]; kinetic assay, Lineweaver-Burk", "result": "significantly inhibited"}, {"measurement": "effect of competing ligand on [3H]-5HT uptake, L-S1", "setting": "[3]; [16]", "result": "significantly inhibited"}, {"measurement": "effect on [3H]Glu uptake by L-Glul cells", "setting": "[15]", "result": "only unlabelled L-glutamate seems to mediate some inhibition"}, {"measurement": "IC50", "setting": "[7]", "result": 150, "unit": "nM"}]}, {"compound": "O=C(O)[C@@H]1CNCC[C@@H]1O", "note": "(relative stereo) [4-cis-OHNA, 4-cis-hydroxynipecotic acid]", "values": [{"measurement": "IC50", "setting": "[9]", "result": "10000 to 200000", "unit": "nM"}, {"measurement": "effect of GABA uptake inhibitors on [3H]GABA uptake by L-GAB1 cells", "setting": "[11]", "result": "without measurable effect"}]}, {"compound": "CN(C)CCC=C1c2ccccc2CCc2ccccc21", "note": "[Amitriptyline, amitriptyline]", "values": [{"measurement": "IC50", "setting": "[4]", "result": 140, "unit": "nM"}]}, {"compound": "CNCCCN1c2ccccc2CCc2ccccc21", "note": "[Desipramine, desipramine]", "values": [{"measurement": "IC50", "setting": "[4]", "result": 620, "unit": "nM"}]}]}
